In patent US20250129088A1, “CEREBLON E3 UBIQUITIN LIGASE INHIBITOR” (Gan & Lee Pharmaceuticals Co., Ltd., priority 2022, published 2025):

Tests used:
JeKo-1 cells = assay: JeKo-1 cell proliferation inhibition, CCK-8; type: cell-based; conditions: Homo sapiens, 96 h, JeKo-1, 4 days
Description: The complete medium required for JeKo-1 cells is RPMI1640 (ATCC, Product number: 30-2001) basal medium containing 20% fetal bovine serum. The JeKo-1 cells were seeded in a 96-well plate at a density of 10,000 cells/well, and different concentrations of the compounds of the present invention were prepared to treat the cells at the same time. The cells were incubated at a 37° C., 5% CO2 cell culture incubator for 4 days. Cell viability was detected using the CCK-8 kit (Beyotime, Product number: C0040) according to the manufacturer's instructions. According to the inhibition rate, the GraphPad Prism software was used to calculate the IC50 value of each compound for 4 days, and the results are shown in Table 13.

Z138 cells = assay: Z138 cell proliferation inhibition, CCK-8; type: cell-based; conditions: Homo sapiens, Z-138, 96 h, Z138, 4 days
Description: The complete medium required for Z138 cells is IMDM (ATCC, Product number: 30-2005) basal medium containing 10% horse serum. Z138 cells were seeded in a 96-well plate at a density of 10,000 cells/well, and different concentrations of the compound of the present invention and a positive control sample Ibrutinib (source: Bide Pharmaceuticals) were prepared to treat the cells. The cells were incubated in a 37° C., 5% CO2 cell incubator for 4 days. Cell viability was detected using the CCK-8 kit (Beyotime, Product number: C0040) according to the manufacturer's instructions. According to the inhibition rate, the GraphPad Prism software was used to calculate the IC50 value of each compound for 4 days, and the results are shown in Table 14.

Row | Structure (SMILES) | IC50 (JeKo-1 cells) [µM] | IC50 (Z138 cells) [µM]
1 | Nc1ncnc2c1c(-c1ccc(Oc3ccccc3)cc1)nn2[C@@H]1CCCN(CCOCCC(=O)N2CCC3(CCc4cc5c(cc4O3)C(=O)N(C3CCC(=O)NC3=O)C5)CC2)C1 (stereo partly drawn) [PROTAC 36, 3-(1-(3-(2-((R)-3-(4-amino-3-(4-phenoxyphenyl)-1H-pyrazolo[3,4-d]pyrimidine-1-yl)piperidin-1-yl)ethoxy)propionyl)-8′-oxo-3′,4′,6′,8′-tetrahydro-7′H-spiro[piperidine-4, 2′-pyrano[2,3-f]isoindol]-7′-yl)piperidine-2,6-dione] | 19.2 | 25.4
2 | Nc1ncnc2c1c(-c1ccc(Oc3ccccc3)cc1)nn2[C@@H]1CCCN(CCOCCC(=O)N2CCC3(CC2)COc2cc4c(cc2O3)CN(C2CCC(=O)NC2=O)C4=O)C1 (stereo partly drawn) [PROTAC 37, 3-(1-(3-(2-((R)-3-(4-amino-3-(4-phenoxyphenyl)-1H-pyrazolo[3,4-d]pyrimidine-1-yl)piperidin-1-yl)ethoxy)propionyl)-6′-oxo-6′,8′-dihydro-3′H,7′H-spiro[piperidine-4,2′-[1,4]dioxino[2,3-f]isoindole]-7′-yl)piperidine-2,6-dione] | 32.4 | 36.1
